Measured values published in ChEMBL document CHEMBL3046257, “Response of sweet maize (Zea mays L.) hybrids to halosulfuron” (Crop Prot, 2008).

Tests used:
Type in all cases: organism-based
Zea mays [1] = experiment: Toxicity in Zea mays Empire (maize) assessed as visible injury at 25 g ai/ha applied shortly post-emergence at three to five-leaf stage using backpack sprayer measured after 14 days; details: in vivo, other, 336 h
Zea mays [2] = experiment: Toxicity in Zea mays GSS9299 (maize) assessed as plant height at 25 g ai/ha applied shortly post-emergence at three to five-leaf stage using backpack sprayer measured after 21 days (Rvb =69 cm); details: in vivo, other, 504 h
Zea mays [3] = experiment: Toxicity in Zea mays GG446 (maize) assessed as cob size at 50 g ai/ha applied shortly post-emergence at three to five-leaf stage using backpack sprayer (reference value: 379 g); details: in vivo, other
Zea mays [4] = experiment: Toxicity in Zea mays GG214 (maize) assessed as plant height at 50 g ai/ha applied shortly post-emergence at three to five-leaf stage using backpack sprayer measured after 21 days (Rvb =81 cm); details: in vivo, other, 504 h
Zea mays [5] = experiment: Toxicity in Zea mays GSS9299 (maize) assessed as visible injury at 25 g ai/ha applied shortly post-emergence at three to five-leaf stage using backpack sprayer measured after 7 days; details: in vivo, other, 168 h
Zea mays [6] = experiment: Toxicity in Zea mays GH2684 (maize) assessed as visible injury at 50 g ai/ha applied shortly post-emergence at three to five-leaf stage using backpack sprayer measured after 28 days; details: in vivo, other, 672 h
Zea mays [7] = experiment: Toxicity in Zea mays Empire (maize) assessed as plant height at 25 g ai/ha applied shortly post-emergence at three to five-leaf stage using backpack sprayer measured after 21 days (Rvb =73 cm); details: in vivo, other, 504 h
Zea mays [8] = experiment: Toxicity in Zea mays GSS9299 (maize) assessed as marketable yield at 50 g ai/ha applied shortly post-emergence at three to five-leaf stage using backpack sprayer (reference value: 13.2 T/ha ); details: in vivo, other
Zea mays [9] = experiment: Toxicity in Zea mays GH2041 (maize) assessed as plant height at 50 g ai/ha applied shortly post-emergence at three to five-leaf stage using backpack sprayer measured after 21 days (Rvb =80 cm); details: in vivo, other, 504 h
Zea mays [10] = experiment: Toxicity in Zea mays GG214 (maize) assessed as visible injury at 50 g ai/ha applied shortly post-emergence at three to five-leaf stage using backpack sprayer measured after 7 days; details: in vivo, other, 168 h
Zea mays [11] = experiment: Toxicity in Zea mays Empire (maize) assessed as visible injury at 50 g ai/ha applied shortly post-emergence at three to five-leaf stage using backpack sprayer measured after 14 days; details: in vivo, other, 336 h
Zea mays [12] = experiment: Toxicity in Zea mays GH2684 (maize) assessed as cob size at 50 g ai/ha applied shortly post-emergence at three to five-leaf stage using backpack sprayer (reference value: 340 g); details: in vivo, other
Zea mays [13] = experiment: Toxicity in Zea mays GH2684 (maize)assessed as visible injury at 25 g ai/ha applied shortly post-emergence at three to five-leaf stage using backpack sprayer measured after 14 days; details: in vivo, other, 336 h
Zea mays [14] = experiment: Toxicity in Zea mays GH2298 (maize) assessed as marketable yield at 25 g ai/ha applied shortly post-emergence at three to five-leaf stage using backpack sprayer (reference value: 16.9 T/ha ); details: in vivo, other
Zea mays [15] = experiment: Toxicity in Zea mays GH2547 (maize) assessed as cob size at 50 g ai/ha applied shortly post-emergence at three to five-leaf stage using backpack sprayer (reference value: 315 g); details: in vivo, other
Zea mays [16] = experiment: Toxicity in Zea mays Empire (maize) assessed as reduction in marketable yield at 25 g ai/ha applied shortly post-emergence at three to five-leaf stage using backpack sprayer; set-up: scale not given: the % may be the effect or the level left; details: in vivo, other
Zea mays [17] = experiment: Toxicity in Zea mays GH2684 (maize) assessed as marketable yield at 50 g ai/ha applied shortly post-emergence at three to five-leaf stage using backpack sprayer (reference value: 15.5 T/ha ); details: in vivo, other
Zea mays [18] = experiment: Toxicity in Zea mays GH2041 (maize) assessed as plant height at 25 g ai/ha applied shortly post-emergence at three to five-leaf stage using backpack sprayer measured after 21 days (Rvb =80 cm); details: in vivo, other, 504 h
Zea mays [19] = experiment: Toxicity in Zea mays GH2041 (maize) assessed as cob size at 25 g ai/ha applied shortly post-emergence at three to five-leaf stage using backpack sprayer (reference value: 285 g); details: in vivo, other
Zea mays [20] = experiment: Toxicity in Zea mays Empire (maize) assessed as visible injury at 25 g ai/ha applied shortly post-emergence at three to five-leaf stage using backpack sprayer measured after 28 days; details: in vivo, other, 672 h
Zea mays [21] = experiment: Toxicity in Zea mays GG214 (maize) assessed as visible injury at 25 g ai/ha applied shortly post-emergence at three to five-leaf stage using backpack sprayer measured after 14 days; details: in vivo, other, 336 h
Zea mays [22] = experiment: Toxicity in Zea mays GG446 (maize) assessed as visible injury at 50 g ai/ha applied shortly post-emergence at three to five-leaf stage using backpack sprayer measured after 28 days; details: in vivo, other, 672 h
Zea mays [23] = experiment: Toxicity in Zea mays GH2684 (maize) assessed as plant height at 50 g ai/ha applied shortly post-emergence at three to five-leaf stage using backpack sprayer measured after 21 days (Rvb =73 cm); details: in vivo, other, 504 h
Zea mays [24] = experiment: Toxicity in Zea mays GG214 (maize) assessed as plant height at 25 g ai/ha applied shortly post-emergence at three to five-leaf stage using backpack sprayer measured after 21 days (Rvb =81 cm); details: in vivo, other, 504 h
Zea mays [25] = experiment: Toxicity in Zea mays GG446 (maize) assessed as visible injury at 50 g ai/ha applied shortly post-emergence at three to five-leaf stage using backpack sprayer measured after 7 days; details: in vivo, other, 168 h
Zea mays [26] = experiment: Toxicity in Zea mays GG214 (maize) assessed as visible injury at 25 g ai/ha applied shortly post-emergence at three to five-leaf stage using backpack sprayer measured after 7 days; details: in vivo, other, 168 h
Zea mays [27] = experiment: Toxicity in Zea mays GG446 (maize) assessed as visible injury at 50 g ai/ha applied shortly post-emergence at three to five-leaf stage using backpack sprayer measured after 14 days; details: in vivo, other, 336 h
Zea mays [28] = experiment: Toxicity in Zea mays GH2298 (maize) assessed as visible injury at 25 g ai/ha applied shortly post-emergence at three to five-leaf stage using backpack sprayer measured after 28 days; details: in vivo, other, 672 h
Zea mays [29] = experiment: Toxicity in Zea mays GG446 (maize) assessed as visible injury at 25 g ai/ha applied shortly post-emergence at three to five-leaf stage using backpack sprayer measured after 7 days; details: in vivo, other, 168 h
Zea mays [30] = experiment: Toxicity in Zea mays GSS9299 (maize) assessed as cob size at 50 g ai/ha applied shortly post-emergence at three to five-leaf stage using backpack sprayer (reference value: 292 g); details: in vivo, other
Zea mays [31] = experiment: Toxicity in Zea mays Empire (maize) assessed as visible injury at 25 g ai/ha applied shortly post-emergence at three to five-leaf stage using backpack sprayer measured after 7 days; details: in vivo, other, 168 h
Zea mays [32] = experiment: Toxicity in Zea mays GSS9299 (maize) assessed as plant height at 50 g ai/ha applied shortly post-emergence at three to five-leaf stage using backpack sprayer measured after 21 days (Rvb =69 cm); details: in vivo, other, 504 h
Zea mays [33] = experiment: Toxicity in Zea mays GH2547 (maize) assessed as plant height at 50 g ai/ha applied shortly post-emergence at three to five-leaf stage using backpack sprayer measured after 21 days (Rvb =80 cm); details: in vivo, other, 504 h

SMILES: COc1cc(OC)nc(NC(=O)NS(=O)(=O)c2c(C(=O)O)c(Cl)nn2C)n1 [HALOSULFURON]
- Activity (Zea mays [1]): 3%
- Activity (Zea mays [2]): 68 cm
- Activity (Zea mays [3]): 387 g
- Activity (Zea mays [4]): 75 cm
- Activity (Zea mays [5]): 1%
- Activity (Zea mays [6]): 1%
- Activity (Zea mays [7]): 69 cm
- Crop_yield (Zea mays [8]): 12.8 tons/ha
- Activity (Zea mays [9]): 77 cm
- Activity (Zea mays [10]): 3%
- Activity (Zea mays [11]): 6%
- Activity (Zea mays [12]): 321 g
- Activity (Zea mays [13]): 3%
- Crop_yield (Zea mays [14]): 16.4 tons/ha
- Activity (Zea mays [15]): 312 g
- Activity (Zea mays [16]): 14%
- Crop_yield (Zea mays [17]): 15.2 tons/ha
- Activity (Zea mays [18]): 76 cm
- Activity (Zea mays [19]): 273 g
- Activity (Zea mays [20]): 0%
- Activity (Zea mays [21]): 0%
- Activity (Zea mays [22]): 0%
- Activity (Zea mays [23]): 73 cm
- Activity (Zea mays [24]): 77 cm
- Activity (Zea mays [25]): 0%
- Activity (Zea mays [26]): 1%
- Activity (Zea mays [27]): 0%
- Activity (Zea mays [28]): 0%
- Activity (Zea mays [29]): 0%
- Activity (Zea mays [30]): 297 g
- Activity (Zea mays [31]): 4%
- Activity (Zea mays [32]): 68 cm
- Activity (Zea mays [33]): 79 cm
